Test results taken from patent publication US7557144B1, “Modulation of protein expression using carbocyclic aryl alkenoic acid derivatives” (The Johns Hopkins University, priority 2000, dated 2009).

Key:
Format in all cases: cell-based, human
ΔF508-CFTR [1] = assay: CFTR immunoprecipitation and phosphorylation in IB3-1 cells (bands B and C)
Description: CFTR was immunoprecipitated and phosphorylated as described in the Methods. […] Band B CFTR is barely visible consistent with low level ΔF508 expression. The positive control condition, untreated cells grown at 28° C., is in lane 7. Band C has been induced and Band B is relatively depleted consistent with an effect of low temperature on protein trafficking. […] This is consistent with an effect on protein production and on protein trafficking.
Shown in FIGS. 9A and 9B are independent experiments performed as described above. Now the control cells are analyzed in lane 5. Lanes 1-4 show decreasing concentrations of the test compound.
CFTR was detected by immunoprecipitation and phosphorylation. Control cells at 0 and 32 hrs have barely visible CFTR bands B and C. Exposure to low temperature induces band C. 1 mM 4-phenyl-Δ3-transbutenoic acid begins to induce band C and 4 hr and appears maximal by 16 hrs.

ΔF508-CFTR [2] = assay: CFTR bands B and C in primary cystic fibrosis bronchial epithelial cells; conditions: primary CF bronchial epithelial cells, 48 hr
Description: Shown in FIGS. 10A and 10B are results of CF bronchial epithelial cells were harvested from the discarded lungs of a CF patient who underwent therapeutic lung transplant. The genotype is homozygous ΔF508. The methods are as described above. Control cells grown in standard conditions for 0 or 48 hrs are in lanes 6 and 7. Bands B and C are barely detectable. […] The test compound in doses from 1 μM to 1 mM for 48 hr is shown in decreasing order in lanes 2-5.

Hsc70 [3] = assay: Hsc70 immunoblot in primary CF bronchial epithelial cells
Description: Shown in FIG. 11 is an experiment in which cells were exposed to control or test conditions or study drug for 48 hrs and then analyzed by immunoblotting for Hsc70, a 70 kD heat shock chaperone protein. […] Hsc70 is not as dramatically down regulated by growth at 27° C.
Shown in FIG. 12 is an experiment performed along lines as shown in FIG. 10A in the same primary cell line. Hsc70 under control conditions is strongly visible in lane 6. Study drug at 1 μM or higher, and low temperature, are associated with more than 50% reduction in Hsc70.

Hsc70 mRNA = assay: RNase protection assay of Hsc70 mRNA in IB3-1 cells; conditions: 2 days, 1 mM butyrate, 1 M glycerol
Source text: 4. RNase protection. An Hsc70-specific probe for RNase protec-tion was constructed by isolation a 500-bp EcoR I fragment from American Type Culture Collection (ATCC) plasmid 77659 (ATCC, Manassas, Va.) and ligating this fragment into the EcoR I site of pSK(2) (Bluescript, Stratagene, La Jolla, Calif.). The resulting plasmid was sequenced in the Genetics Core Facility at the Johns Hopkins Hospital and found to be identical to sequences in exons 8 and 9 of the human Hsc70 sequence, with sequencing using the T3 primer and T7 primer leading to sense and antisense sequence, respectively. Hybridization probes were synthesized using a Maxiscript T7 kit (Ambion, Austin, Tex.) and [α^32 P]UTP (Amersham or DuPont NEN, Boston, Mass.) according to the Maxiscript protocol. Templates for internal control hybridizations, pTRI-18S and pTRI-cyclophilin A, were purchased from Ambion, and probes were similarly synthesized using the Maxiscript T7 kit. Probes were isolated by acid phenol-chloroform (Ambion) extraction, separated from unincorporated nucleotide by gel filtration (Sephadex G25 RNAspin column, Boehringer-Mannheim), and ethanol-acetate precipitated before resuspension in hybridization buffer. The concentration of radioactivity in the synthesized probes was determined by liquid scintillation.
RNase protection experiments were performed using the Direct Protect RNase protection assay kit (Ambion) according to the manufacturer's protocol. IB3-1 cell lysates were pre-pared in Direct Protect lysis buffer according to the manufacturer's protocol after incubation under the appropriate conditions for 48 h. Probe (50-70 and 5-10 thousands of counts/min for Hsc70 and control, respectively) and cellular RNA were hybridized overnight at 37° C. and digested with RNase cocktail. Protected fragments were resolved by electrophoresis on 5% acrylamide-8 M urea gels and detected by fluorography. Hsc70 mRNA concentration is expressed relative to control (18S or cyclophilin A) hybridization by densitometry (see Densitometric analysis). Results for hybridization of Hsc70 mRNA relative to the two control species were similar and were therefore grouped for data analysis.
FIGS. 3A-B are explained in more detailed as follows. Dose-dependent downregulation of Hsc70 mRNA expression by 4-PBA. A: IB3-1 cells were treated as for FIGS. 1 and 2. Hsc70 mRNA and 18S rRNA (as an internal reference) were measured by Direct Protect RNase protection as described under General Comments. […] P values (shown above respective error bars) were determined by 1-way ANOVA in comparison with control.
FIG. 6 is explained in more detail as follows. […] P values (shown above respective error bars) were determined by 1-way ANOVA in comparison with control.

Hsp90 = Hsp90 immunoblot of IB3-1 lysates; conditions: IB3-1 cells, 37° C., 2 days; butyrate 1 mM, glycerol 1 M, phenylacetate 1 mM, G418 0.2 mg/ml
Description: (§1) 3. Immunoblot analysis. Whole cell lysates were prepared by solubilization with 2% SDS at 95° C. Protein concentration in the lysates was determined using the Bio-Rad DC assay reagents with bovine plasma g-globulin as a standard (Bio-Rad Laboratories, Hercules, Calif.). Equal amounts of protein was resolved on 5, 7, 8, or 9% SDS-polyacrylamide gels. Proteins were transferred to nitrocellulose, and immunodetection was performed as previously described (25). Nonspecific binding was blocked by incubation of the nitrocellulose with 2% gelatin or 10% nonfat day milk. Primary antisera and secondary antibodies were applied in buffer containing 0.4% BSA overnight at 4° C. and for 1 h at room temperature, respectively. Detection of immunoreactivity was performed with the enhanced chemiluminescence reagent (ECL, Amer-sham) and fluorography. Recombinant bovine Hsc70 ([…]) was purchased from Stressgen Biotechnologies for use in constructing a standard curve of Hsc70 immunoreactivity. Immunoblots containing the bovine Hsc70 were probed with the Hsc70-specific polyclonal antiserum.
(§2) Whether 4-PBA would regulate expression of a number of other molecular chaperones in IB3-1 cells (FIG. 2) was assessed next. […] Hsp90 is required for correct folding and function of a number of cellular proteins (16). […] Hsp70 (Hsp72) expression is induced by heat shock and the presence of denatured proteins within the eukaryotic cell (16). In Escherichia coli, the Hsp70 homologue DnaK and the Hsp40 homologue DnaJ act to promote protein folding (16). Hdj2 is the member of the Hsp40 family that specifically interacts with and regulates the ATPase activity of Hsc70. Hdj2 also interacts with CFTR during CFTR translation (26).
(§3) FIGS. 2A-2E are more specifically explained as follows. […]
(§4) FIGS. 5A-C are explained in more detail as follows. […] Cellular homogenates were prepared in 2% SDS as described in METHODS, and 5 μg of total cellular protein were analyzed by immunoblot for Hsc70 using rabbit polyclonal antiserum, Hsp90, Hsp70, Hsp40 as described above under General Comments. […]

Hsc70 [4] = assay: Hsc70 immunoblot of IB3-1 whole cell lysates; conditions: IB3-1 cells, 37° C., 2 days; butyrate 1 mM, glycerol 1 M, phenylacetate 1 mM, G418 0.2 mg/ml
Description: as §1

Hsp40 = Hsp40 immunoblot of IB3-1 lysates; conditions: IB3-1 cells, 37° C., 2 days; butyrate 1 mM, glycerol 1 M, phenylacetate 1 mM, G418 0.2 mg/ml
Description: as §1, §2, §3, §4

ΔF508-CFTR/Hsc70 complex = assay: Immunoprecipitation of Hsc70 and coimmunoprecipitation of CFTR from treated IB3-1 cells; conditions: 2 days, butyrate 1 mM, glycerol 1 M, phenylacetate 1 mM, G418 0.2 mg/ml
Hsp70 = Hsp70 immunoblot of IB3-1 lysates; conditions: IB3-1 cells, 37° C., 2 days; butyrate 1 mM, glycerol 1 M, phenylacetate 1 mM, G418 0.2 mg/ml
Description: as §1, §2
FIGS. 2A-2E are more specifically explained as follows. […] IB3-1 cells were treated as described for FIG. 1. Immunoblotting with 5 μg of IB3-1 SDS lysate protein was performed as described in the foregoing General Comments.
FIGS. 5A-C are explained in more detail as follows. […] A: IB3-1 cells were incubated at 37° C. for 2 days under indicated conditions. Cellular homogenates were prepared in 2% SDS as described in METHODS, and 5 μg of total cellular protein were analyzed by immunoblot for Hsc70 using rabbit polyclonal antiserum, Hsp90, Hsp70, Hsp40 as described above under General Comments. Con, control. B and C: densitometric analysis of Hsc70 expression (B) and Hsp90, Hsp70, and Hsp40 expression (C) was performed as described for FIG. 1. B: means 6 SE of density in 4 independent experiments.

[5] = IB3-1 cells, 1 μM to 100 μM, 48 hr (FIG. 8)

O=C(O)CC=Cc1ccccc1 [4-phenyl-Δ3-transbutenoic acid]
Band B and total CFTR (ΔF508-CFTR [1]; [5]): induction
induction of Band C CFTR (ΔF508-CFTR [1]; [5]): dose-dependent induction of Band C
time at which induction of band C begins (ΔF508-CFTR [1]; IB3-1 cells, 1 mM): 4 h
time by which induction of band C appears maximal (ΔF508-CFTR [1]; IB3-1 cells, 1 mM): ≤ 16 h
induction of CFTR bands B and C (ΔF508-CFTR [1]; IB3-1 cells, independent experiments (FIGS. 9A and 9B)): dose-dependent induction of bands B and C
effectiveness compared with 4-PBA (ΔF508-CFTR [1]; data of Examples 4-12): much more effective at lower concentrations
concentration giving maximum induction of bands B and C (ΔF508-CFTR [2]; doses 1 μM to 1 mM): 1 mM
induction of CFTR bands B and C (ΔF508-CFTR [2]; homozygous ΔF508, 1 μM): dramatic induction of bands B and C
reduction in Hsc70 (Hsc70 [3]; 1 μM or higher (FIG. 12)): more than 50%
reduction in Hsc70 (Hsc70 [3]; 100 μM and 1 mM, 48 hrs, semi-quantitative blot (FIG. 11)): ≥ 50%

CCCC(=O)O [butyrate, butyric acid]
reduction in steady-state Hsc70 mRNA levels (Hsc70 mRNA): ~50%

O=C(O)Cc1ccccc1 [Phenylacetate, phenylacetic acid]
Hsp90 immunoreactivity (Hsp90): little effect
Hsc70 immunoreactivity (Hsc70 [4]): little effect
Hsp40 immunoreactivity (Hsp40): not affected
amount of immunoreactive CFTR coprecipitated with Hsc70 (ΔF508-CFTR/Hsc70 complex): little effect
Hsp70 immunoreactivity (Hsp70): not affected

OCC(O)CO [glycerol]
Hsp90 immunoreactivity (Hsp90): not change
Hsc70 immunoreactivity (Hsc70 [4]): reduction
Hsp40 immunoreactivity (Hsp40): not change
amount of immunoreactive CFTR coprecipitated with Hsc70 (ΔF508-CFTR/Hsc70 complex): decreases
Hsp70 immunoreactivity (Hsp70): not change
reduction in steady-state Hsc70 mRNA levels (Hsc70 mRNA): ~50%
